Assay results from patent publication US20220241409A1, “WATER SOLUBLE ADJUVANT AND COMPOSITION CONTAINING SAME” (Sumitomo Dainippon Pharma Co., Ltd., priority 2019, published 2022).

Experiments:
mouse TLR7 = molecular target: T1, mouse TLR7 (Mus musculus, UniProt P58681); assay: Mouse TLR7 reporter gene assay (Test 2); format: cell-based; conditions: half-maximal SEAP induction, HEK-Blue mTLR7 cell line, overnight 37° C., 0.1% DMSO
T1 construct: expresses full-length mouse TLR7 and secretory SEAP reporter gene; host or cells: HEK-Blue mTLR7 cell line
T1 sequence (P58681 27-1050): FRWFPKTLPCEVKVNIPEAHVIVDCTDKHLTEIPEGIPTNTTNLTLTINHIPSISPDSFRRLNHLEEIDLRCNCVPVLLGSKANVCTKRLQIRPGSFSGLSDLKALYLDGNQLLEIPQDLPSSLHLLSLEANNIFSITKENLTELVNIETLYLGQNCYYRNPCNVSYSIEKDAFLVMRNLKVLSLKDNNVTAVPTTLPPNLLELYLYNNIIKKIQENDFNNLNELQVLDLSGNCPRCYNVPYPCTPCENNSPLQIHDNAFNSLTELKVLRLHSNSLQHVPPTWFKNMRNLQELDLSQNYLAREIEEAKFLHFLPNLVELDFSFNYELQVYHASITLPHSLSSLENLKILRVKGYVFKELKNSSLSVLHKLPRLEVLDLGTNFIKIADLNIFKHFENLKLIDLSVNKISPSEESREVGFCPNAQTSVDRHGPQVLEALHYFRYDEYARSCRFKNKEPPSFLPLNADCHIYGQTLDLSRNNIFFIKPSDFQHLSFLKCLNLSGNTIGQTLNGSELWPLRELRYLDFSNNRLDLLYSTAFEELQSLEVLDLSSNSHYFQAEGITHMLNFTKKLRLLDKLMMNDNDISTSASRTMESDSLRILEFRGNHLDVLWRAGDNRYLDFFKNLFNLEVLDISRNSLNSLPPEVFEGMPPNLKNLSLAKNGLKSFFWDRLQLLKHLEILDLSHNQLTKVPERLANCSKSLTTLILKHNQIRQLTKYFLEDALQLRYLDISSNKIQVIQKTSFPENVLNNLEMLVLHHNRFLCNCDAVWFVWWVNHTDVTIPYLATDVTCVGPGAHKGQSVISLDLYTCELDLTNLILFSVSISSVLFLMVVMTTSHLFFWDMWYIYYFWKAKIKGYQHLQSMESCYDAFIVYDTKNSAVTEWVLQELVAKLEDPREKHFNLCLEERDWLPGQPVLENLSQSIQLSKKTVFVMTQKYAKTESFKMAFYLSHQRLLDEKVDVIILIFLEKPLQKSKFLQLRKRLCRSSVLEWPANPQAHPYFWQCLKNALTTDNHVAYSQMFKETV
Description: HEK-Blue™ mTLR7 cell line (Invivogen) is a stably co-transfected cell line which expresses full-length mouse TLR7 and secretory SEAP reporter gene under the transcriptional regulation of an NF-κB response element. The TLR7 expression of the cell line has been already tested by RT-PCR. Transfectants with stable expression were selected using the antibiotic blasticidin and Zeocin. TLR signaling leads to the translocation of NF-κB and the activation of the promoter results in expression of the SEAP gene. TLR7-specific activation was assessed by determining the level of SEAP produced following overnight incubation of the cells at 37° C. with each compound prepared in Examples and Reference examples in the presence of 0.1% (v/v) DMSO. The mouse TLR7 activity for the present compound was assessed by mouse TLR7 reporter gene assay, and the results are shown in Tables 8 and 9 as the compound concentration which produced half of the maximal level of SEAP induction (EC50).

human TLR7 = molecular target: T2, human TLR7 (Homo sapiens, UniProt Q9NYK1); assay: Human TLR7 reporter gene assay (Test 1); format: cell-based; conditions: half-maximal SEAP induction, TLR7/NF-κB/SEAPorter HEK293 cell line, overnight 37° C., 0.1% DMSO
T2 construct: expresses full-length human TLR7 and secretory alkaline phosphatase (SEAP) reporter gene; host or cells: TLR7/NF-κB/SEAPorter HEK293 cell line
T2 sequence (Q9NYK1 27-1049): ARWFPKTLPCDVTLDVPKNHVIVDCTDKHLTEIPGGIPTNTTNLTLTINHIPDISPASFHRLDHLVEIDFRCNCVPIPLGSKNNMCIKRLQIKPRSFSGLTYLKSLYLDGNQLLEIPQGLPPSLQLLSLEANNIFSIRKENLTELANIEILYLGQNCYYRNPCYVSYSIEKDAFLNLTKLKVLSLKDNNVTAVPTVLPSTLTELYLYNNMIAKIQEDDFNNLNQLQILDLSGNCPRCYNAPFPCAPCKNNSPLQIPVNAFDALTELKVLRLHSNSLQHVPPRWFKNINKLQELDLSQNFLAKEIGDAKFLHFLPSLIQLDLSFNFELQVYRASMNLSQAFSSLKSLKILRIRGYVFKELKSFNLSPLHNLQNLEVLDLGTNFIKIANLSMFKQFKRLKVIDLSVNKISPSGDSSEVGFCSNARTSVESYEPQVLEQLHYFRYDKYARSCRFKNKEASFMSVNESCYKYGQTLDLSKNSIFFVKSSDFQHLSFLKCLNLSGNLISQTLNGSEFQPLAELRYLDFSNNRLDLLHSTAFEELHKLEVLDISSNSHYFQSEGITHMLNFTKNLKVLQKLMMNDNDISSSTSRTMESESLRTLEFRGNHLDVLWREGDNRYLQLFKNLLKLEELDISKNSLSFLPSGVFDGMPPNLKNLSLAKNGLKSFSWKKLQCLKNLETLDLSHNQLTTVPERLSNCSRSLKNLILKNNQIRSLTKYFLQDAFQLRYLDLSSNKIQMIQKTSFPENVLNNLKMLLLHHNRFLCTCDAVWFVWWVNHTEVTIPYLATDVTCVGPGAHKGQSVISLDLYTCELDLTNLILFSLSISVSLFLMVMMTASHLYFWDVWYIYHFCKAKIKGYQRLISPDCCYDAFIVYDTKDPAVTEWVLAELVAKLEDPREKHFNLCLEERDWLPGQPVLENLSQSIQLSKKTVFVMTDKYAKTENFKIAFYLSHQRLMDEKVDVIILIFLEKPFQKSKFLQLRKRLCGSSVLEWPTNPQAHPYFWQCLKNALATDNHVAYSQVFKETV
Description: TLR7/NF-κB/SEAPorter™ HEK293 cell line (Imgenex Corporation) is a stably co-transfected cell line which expresses full-length human TLR7 and secretory alkaline phosphatase (SEAP) reporter gene under the transcriptional regulation of an NF-κB response element. The TLR7 expression of the cell line has been already tested by flow cytometry. Transfectants with stable expression were selected using the antibiotic blasticidin and Geneticin. TLR signaling leads to the translocation of NF-κB and the activation of the promoter results in expression of the SEAP gene. TLR7-specific activation was assessed by determining the level of SEAP produced following overnight incubation of the cells at 37° C. with each compound prepared in Examples and Reference examples in the presence of 0.1% (v/v) dimethylsulfoxide (DMSO). The human TLR7 activity for the present compound was assessed by human TLR7 reporter gene assay, and the results are shown in Tables 6 and 7 as the compound concentration which produced half of the maximal level of SEAP induction (EC50).

[1] = test system: HLA-A*02:01 transgenic mouse; assay: In vivo adjuvant activity, CTL induction with vaccine b, IFNγ ELISPOT (Test 18); conditions: 0.04 nmol per body added to vaccine b versus no compound; twice
Description: The in vivo adjuvant activity of the compound of Example 6 was evaluated in the following procedure. To vaccine b like Test 17 was added the compound prepared in Example 6 to prepare a vaccine. The vaccine was administered to a HLA-A*02:01 transgenic mouse, and the adjuvant activity of the vaccine was evaluated by the method of testing antigen-specific CTL induction.
Specifically, Compound of formula 4 and Peptide SEQ ID No. 3 were dissolved in DMSO, and then diluted with water for injection to concentrations of Compound of formula 4 of 3 mg/mL and Peptide SEQ ID No. 3 of 2.25 mg/mL. The diluted peptide solution was mixed and emulsified with an equal volume of Montanide ISA 51 VG to prepare vaccine b. Vaccine b was injected to mice intradermally at the tail base area in an amount for administering 300 μg of Compound of formula 4 per body and 225 μg of Peptide SEQ ID No. 3 per body. Or, in the step of preparing vaccine b, the compound prepared in Example 6 was added to the diluted peptide solution to prepare a vaccine, and the prepared vaccine was injected to mice intradermally at the tail base area in an amount for administering 300 μg of Compound of formula 4 per body, 225 μg of Peptide SEQ ID No. 3 per body, and 0.04 nmol of the compound prepared in Example 6 per body. […] Then, after removal of the supernatant from the wells, stained spots on the ELISPOT plate were counted.

[2] = test system: HLA-A*02:01 transgenic mouse; assay: In vivo adjuvant activity, CTL induction with vaccine b, IFNγ ELISPOT (Test 17); conditions: 0.04 nmol or 0.4 nmol per body added to vaccine b versus no compound; twice
Description: The in vivo adjuvant activity of the compounds prepared in Examples 7, 8, and 9 was evaluated in the following procedure. To vaccine b comprising Compound of formula 4 prepared in Reference example 9 and Peptide SEQ ID No. 3 prepared in Reference example 3 with Montanide ISA51 VG was added the compound prepared in Example 7, 8, or 9 to prepare each vaccine. The vaccine was administered to a HLA-A*02:01 transgenic mouse, and the adjuvant activity of each vaccine was evaluated by the method of testing antigen-specific CTL induction.
Specifically, Compound of formula 4 and Peptide SEQ ID No. 3 were dissolved in DMSO, and then diluted with water for injection to concentrations of Compound of formula 4 of 3 mg/mL and Peptide SEQ ID No. 3 of 2.25 mg/mL. The diluted peptide solution was mixed and emulsified with an equal volume of Montanide ISA 51 VG to prepare vaccine b. Vaccine b was injected to mice intradermally at the tail base area in an amount for administering 300 μg of Compound of formula 4 per body and 225 μg of Peptide SEQ ID No. 3 per body. […] Then, after removal of the supernatant from the wells, stained spots on the ELISPOT plate were counted.

Structure (SMILES)	EC50 (human TLR7; Table 6, Examples)	CTL counts responsive to Peptide SEQ ID No. 5 [2]	other results
CCCCOc1nc(N)c2[nH]c(=O)n(Cc3ccc(CN(C)CCOCCOCCOCCOCCO)cn3)c2n1 [Example 1, 6-amino-2-butoxy-9-{[5-(16-hydroxy-2-methyl-5,8,11,14-tetraoxa-2-azahexadecan-1-yl)pyridin-2-yl]methyl}-7,9-dihydro-8H-purin-8-one.trifluoroacetate]	150 nM	–	EC50 (mouse TLR7; Table 8, Examples): 1450 nM
COCCOc1nc(N)c2[nH]c(=O)n(Cc3ccc(CN(C)CCOCCOCCOCCOCCO)cc3)c2n1 [Example 4, 6-amino-9-{[4-(16-hydroxy-2-methyl-5,8,11,14-tetraoxa-2-azahexadecan-1-yl)phenyl]methyl}-2-(2-methoxyethoxy)-7,9-dihydro-8H-purin-8-one]	5300 nM	–	–
CCCCOc1nc(N)c2[nH]c(=O)n(Cc3ccc(CN(CCOCCOCCOCCO)CCOCCOCCOCCO)nc3)c2n1 [Example 6, 6-Amino-2-butoxy-9-({6-[13-hydroxy-2-(2-{2-[2-(2-hydroxyethoxy)ethoxy]ethoxy}ethyl)-5,8,11-trioxa-2-azatridecan-1-yl]pyridin-3-yl}methyl)-7,9-dihydro-8H-purin-8-one]	–	–	CTL counts responsive to Peptide SEQ ID No. 5 [1]: more
CCCCOc1nc(N)c2[nH]c(=O)n(Cc3ccc(CN(C)CCOCCOCCOCCOCCOCCOCCOCCOCCOCCO)nc3)c2n1 [Example 7, 6-Amino-2-butoxy-9-{[6-(31-hydroxy-2-methyl-5,8,11,14,17,20,23,26,29-nonaoxa-2-azahentriacontan-1-yl)pyridin-3-yl]methyl}-7,9-dihydro-8H-purin-8-one]	–	more	–
CCCCOc1nc(N)c2[nH]c(=O)n(Cc3ccc(CN(C)CCOCCOCCOCCOCCOCCOCCOCCOCCOCCOCCOCCOCCOCCOCCOCCOCCOCCOCCOCCOCCOCCOCCOCCO)nc3)c2n1 [Example 8, 6-Amino-2-butoxy-9-{[6-(73-hydroxy-2-methyl-5,8,11,14,17,20,23,26,29,32,35,38,41,44,47,50,53,56,59,62,65,68,71-tricosaoxa-2-azatriheptacontan-1-yl)pyridin-3-yl]methyl}-7,9-dihydro-8H-purin-8-one]	–	more	–
CCCCOc1nc(N)c2[nH]c(=O)n(Cc3ccc(CNC)cn3)c2n1 [compound 13, reference compound]	–	–	EC50 (mouse TLR7; Table 9, Reference examples): 279 nM; EC50 (human TLR7; Table 7, Reference examples): 82 nM
